Target: CK2A1 (CK2α/β) (Homo sapiens, UniProt P68400)
Assay: CK2 kinase assay, CK2A1 (CK2α/β)
Format: biochemical
Conditions: Table A; read-out: CK2A1 (CK2α/β) (IC50)

Sequence of CK2A1 (CK2α/β) (P68400 whole entry, species assumed): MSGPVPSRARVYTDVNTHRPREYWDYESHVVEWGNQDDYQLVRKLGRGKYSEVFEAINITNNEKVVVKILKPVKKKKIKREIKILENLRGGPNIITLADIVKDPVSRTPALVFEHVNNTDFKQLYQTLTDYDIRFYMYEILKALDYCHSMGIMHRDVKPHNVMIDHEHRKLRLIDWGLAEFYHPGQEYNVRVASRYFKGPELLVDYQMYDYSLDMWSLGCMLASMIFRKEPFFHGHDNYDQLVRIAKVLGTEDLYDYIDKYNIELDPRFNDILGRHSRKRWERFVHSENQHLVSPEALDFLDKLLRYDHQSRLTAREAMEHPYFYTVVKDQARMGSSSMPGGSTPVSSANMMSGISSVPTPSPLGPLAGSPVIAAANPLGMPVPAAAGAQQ
Sequence of CK2A1 (CK2α/β) (P67870 whole entry partner, species assumed): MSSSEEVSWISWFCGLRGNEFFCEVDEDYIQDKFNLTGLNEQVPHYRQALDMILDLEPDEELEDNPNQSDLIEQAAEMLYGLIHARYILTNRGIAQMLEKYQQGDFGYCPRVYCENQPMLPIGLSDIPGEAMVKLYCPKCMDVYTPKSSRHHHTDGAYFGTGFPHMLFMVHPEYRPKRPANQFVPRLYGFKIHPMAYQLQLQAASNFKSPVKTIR

SMILES	IC50 [nM]
N#Cc1cc(CNCc2ccccn2)c(Cl)c(Nc2nc(NC3CC3)c3ncc(C#N)n3n2)c1 [Example 467, 2-[(2-chloro-5-cyano-3-{[(pyridin-2-ylmethyl)amino]methyl}phenyl)amino]-4-(cyclopropylamino)imidazo[2,1-f][1,2,4]triazine-7-carbonitrile]	0.45
CC(C)(C)NCc1cc(C#N)cc(Nc2nc(NC3CC3)c3ncc(C#N)n3n2)c1Cl [Example 468, 2-({3-[(tert-butylamino)methyl]-2-chloro-5-cyanophenyl}amino)-4-(cyclopropylamino)imidazo[2,1-f][1,2,4]triazine-7-carbonitrile]	0.3
CC(C)(C)CNCc1cc(C#N)cc(Nc2nc(NC3CC3)c3ncc(C#N)n3n2)c1Cl [Example 469, 2-[(2-chloro-5-cyano-3-{[(2,2-dimethylpropyl)amino]methyl}phenyl)amino]-4-(cyclopropylamino)imidazo[2,1-f][1,2,4]triazine-7-carbonitrile]	1.48
N#Cc1cc(CNCC2CC2)c(Cl)c(Nc2nc(NC3CC3)c3ncc(C#N)n3n2)c1 [Example 470]	1.5
N#Cc1cc(CN2CCC(C(N)=O)CC2)c(Cl)c(Nc2nc(NC3CC3)c3ncc(C#N)n3n2)c1 [Example 471, 1-[(2-chloro-5-cyano-3-{[7-cyano-4-(cyclopropylamino)imidazo[2,1-f][1,2,4]triazin-2-yl]amino}phenyl)methyl]piperidine-4-carboxamide]	0.87
CC(C)(C)N1CCN(Cc2cc(C#N)cc(Nc3nc(NC4CC4)c4ncc(C#N)n4n3)c2Cl)CC1 [Example 472, 2-((3-[(4-tert-butylpiperazin-1-yl)methyl]-2-chloro-5-cyanophenyl}amino)-4-(cyclopropylamino)imidazo[2,1-f][1,2,4]triazine-7-carbonitrile]	1.7
CC(=O)N[C@H]1CCN(Cc2cc(C#N)cc(Nc3nc(NC4CC4)c4ncc(C#N)n4n3)c2Cl)C1 [Example 473, N-[(3S)-1-[(2-chloro-5-cyano-3-{[7-cyano-4-(cyclopropylamino)imidazo[2,1-f][1,2,4]triazin-2-yl]amino}phenyl)methyl]pyrrolidin-3-yl]acetamide]	0.56
N#CCCN(Cc1cc(C#N)cc(Nc2nc(NC3CC3)c3ncc(C#N)n3n2)c1Cl)CC1CCCO1 (stereo not drawn) [Example 474, 2-[(2-chloro-5-cyano-3-{[(2-cyanoethyl)(oxolan-2-ylmethyl)amino]methyl}phenyl)amino]-4-(cyclopropylamino)imidazo[2,1-f][1,2,4]triazine-7-carbonitrile]	1.55
COCCN(C)Cc1cc(C#N)cc(Nc2nc(NC3CC3)c3ncc(C#N)n3n2)c1Cl [Example 475, 2-[(2-chloro-5-cyano-3-{[(2-methoxyethyl)(methyl)amino]methyl}phenyl)amino]-4-(cyclopropylamino)imidazo[2,1-f][1,2,4]triazine-7-carbonitrile]	1.78
COCCN1CCN(Cc2cc(C#N)cc(Nc3nc(NC4CC4)c4ncc(C#N)n4n3)c2Cl)CC1 [Example 476, 2-[(2-chloro-5-cyano-3-{[4-(2-methoxyethyl)piperazin-1-yl]methyl}phenyl)amino]-4-(cyclopropylamino)imidazo[2,1-f][1,2,4]triazine-7-carbonitrile]	2.98
N#Cc1cc(CN2CCC(F)(F)CC2)c(Cl)c(Nc2nc(NC3CC3)c3ncc(C#N)n3n2)c1 [Example 477, 2-({2-chloro-5-cyano-3-[(4,4-difluoropiperidin-1-yl)methyl]phenyl}amino)-4-(cyclopropylamino)imidazo[2,1-f][1,2,4]triazine-7-carbonitrile]	2.43
COC(=O)N1CCN(Cc2cc(C#N)cc(Nc3nc(NC4CC4)c4ncc(C#N)n4n3)c2Cl)CC1 [Example 478, methyl 4-[(2-chloro-5-cyano-3-{[7-cyano-4-(cyclopropylamino)imidazo[2,1-f][1,2,4]triazin-2-yl]amino}phenyl)methyl]piperazine-1-carboxylate]	1.31
N#Cc1cc(CNC2COC2)c(Cl)c(Nc2nc(NC3CC3)c3ncc(C#N)n3n2)c1 [Example 479, 2-[(2-chloro-5-cyano-3-{[(oxetan-3-yl)amino]methyl}phenyl)amino]-4-(cyclopropylamino)imidazo[2,1-f][1,2,4]triazine-7-carbonitrile]	1.07
CC(=O)N1CC(N2CCN(c3cc(C#N)cc(Nc4nc(NC5CC5)c5ncc(C#N)n5n4)c3Cl)CC2)C1 [Example 480, 2-({3-[4-(1-acetylazetidin-3-yl)piperazin-1-yl]-2-chloro-5-cyanophenyl}amino)-4-(cyclopropylamino)imidazo[2,1-f][1,2,4]triazine-7-carbonitrile]	0.86
N#Cc1cc(Nc2nc(NC3CC3)c3ncc(C#N)n3n2)c(Cl)c(N2CCN(C3CN(C(=O)C4(O)CC4)C3)CC2)c1 [Example 481, 2-[(2-chloro-5-cyano-3-{4-[1-(1-hydroxycyclopropane-carbonyl)azetidin-3-yl]piperazin-1-yl}phenyl)amino]-4-(cyclopropylamino)imidazo[2,1-f][1,2,4]triazine-7-carbonitrile]	0.93
COCCC(=O)N1CC(N2CCN(c3cc(C#N)cc(Nc4nc(NC5CC5)c5ncc(C#N)n5n4)c3Cl)CC2)C1 [Example 482, 2-[(2-chloro-5-cyano-3-{4-[1-(3-methoxypropanoyl)azetidin-3-yl]piperazin-1-yl}phenyl)amino]-4-(cyclopropylamino)imidazo[2,1-f][1,2,4]triazine-7-carbonitrile]	1.52
N#Cc1cc(Nc2nc(NC3CC3)c3ncc(C#N)n3n2)c(Cl)c(N2CCN(C3CN(C(=O)CC4CCOCC4)C3)CC2)c1 [Example 483, 2-{[2-chloro-5-cyano-3-(4-{1-[2-(oxan-4-yl)acetyl]azetidin-3-yl}piperazin-1-yl)phenyl]amino}-4-(cyclopropylamino)imidazo[2,1-f][1,2,4]triazine-7-carbonitrile]	0.87
CC(C)(O)C(=O)N1CC(N2CCN(c3cc(C#N)cc(Nc4nc(NC5CC5)c5ncc(C#N)n5n4)c3Cl)CC2)C1 [Example 484, 2-[(2-chloro-5-cyano-3-{4-[1-(2-hydroxy-2-methylpropanoyl)azetidin-3-yl]piperazin-1-yl}phenyl)amino]-4-(cyclopropylamino)imidazo[2,1-f][1,2,4]triazine-7-carbonitrile]	0.81
N#Cc1cc(Nc2nc(NC3CC3)c3ncc(C#N)n3n2)c(Cl)c(N2CCN(C3CN(C(=O)C4CC4)C3)CC2)c1 [Example 485, 2-({2-chloro-5-cyano-3-[4-(1-cyclopropanecarbonyl-azetidin-3-yl)piperazin-1-yl]phenyl}amino)-4-(cyclopropylamino)imidazo[2,1-f][1,2,4]triazine-7-carbonitrile]	0.77
CS(=O)(=O)CC(=O)N1CC(N2CCN(c3cc(C#N)cc(Nc4nc(NC5CC5)c5ncc(C#N)n5n4)c3Cl)CC2)C1 [Example 486, 2-[(2-chloro-5-cyano-3-{4-[1-(2-methanesulfonylacetyl)azetidin-3-yl]piperazin-1-yl}phenyl)amino]-4-(cyclopropylamino)imidazo[2,1-f][1,2,4]triazine-7-carbonitrile]	1.61
CC(O)C(=O)N1CC(N2CCN(c3cc(C#N)cc(Nc4nc(NC5CC5)c5ncc(C#N)n5n4)c3Cl)CC2)C1 (stereo not drawn) [Example 487, 2-[(2-chloro-5-cyano-3-{4-[1-(2-hydroxypropanoyl)azetidin-3-yl]piperazin-1-yl}phenyl)amino]-4-(cyclopropylamino)imidazo[2,1-f][1,2,4]triazine-7-carbonitrile]	0.73

Source: patent US9273057B2 (Bristol-Myers Squibb Company, priority 2012, dated 2016)
